Marks after values point to notes of the source that are not given here.
Columns and labels:
[1] = tested on: BG-1-TR1 human ovarian cancer; experiment: Antitumor efficacy against BG-1-TR1 human ovarian cancer implanted subcutaneously in nude mice
Method: (§1) Compound (1) was suspended in 1% methylcellulose solution (Wako, Osaka, 400 c.p., and distilled water) and was stored at 4° C.
(§2) Female mice, 8 weeks old (strain BALB/c-nu/nu, CLEA Japan Inc., Tokyo) were obtained and adapted for 5 days at experimental conditions and used at 10 weeks old. Experimental conditions included temperature of 21-27° C.; relative humidity of 40-70%; ventilation>10 times/hour; fluorescent light for 12-hour light (8:00-20:00)/12-hour dark; ad libitium access to food (irradiated CA-1, CLEA Japan Inc., Tokyo) and water (Osaka city tap water).
(§3) Statistical analyses versus control group and between selected groups were performed using a spreadsheet program to run Welch's test and Dunnett's multiple comparison test.
(§4) Tumor size and body weight were scored at least twice a week throughout the experiment. Tumor size was captured utilizing CD-10C compatible electric calipers (Mitsutoyo Corp., Kawasaki) and animal weight was automatically captured from the balance (A/D, Tokyo). The tumor volume was calculated by the following formula: [Tumor volume=(Length×Width×Width)/2]. The relative tumor volume (RV) was calculated as RV=Vn/Vo, where Vn: tumor volume on day n, and Vo: initial tumor volume. Judgment was performed one day (Examples 6 and 9) or three days (Examples 7 and 8) after the last dosing.
(§5) Animal experiments were performed using Tumor Measuring & Tracking System (VISIONS Co. Ltd., Tokyo). An experiment consisted of 8 mice per group (Examples 6 and 9) or 6 mice per group (Examples 7 and 8). Tumor samples were implanted subcutaneously into the back of mice (day 0). Tumor-implanted animals were randomized to groups based upon tumor volume and body weight when tumor volume reached approximately 100-200 mm^3. The control group was given vehicle (1% methylcellulose solution). The doses were calculated on the basis of up-to-date body weights of the mice (0.1 mL/10 g body weight). The mice were non-fasted during an entire course of the experiment.
The tumor sample implanted included BG-1-TR1 cells (3×10^6/0.1 ml of 5 mg/ml matrigel solution, BD Biosciences, Bedford, Mass.). Implanted animals were randomized at 20 days. Compound (1) was orally administered daily for 14 days from day 20 to 33.

[2] = tested on: RERF-LC-AI carcinoma; experiment: Antitumor efficacy against RERF-LC-AI human lung cancer fragment implanted subcutaneously in nude mice; details: for % inhibition: day 26
Method: as §1, §2, §3
Tumor size and body weight were scored at least twice a week throughout the experiment. Tumor size was captured utilizing CD-10C compatible electric calipers (Mitsutoyo Corp., Kawasaki) and animal weight was automatically captured from the balance (A/D, Tokyo). The tumor volume was calculated by the following formula: [Tumor volume=(Length×Width×Width)/2]. The relative tumor volume (RV) was calculated as RV=Vn/Vo, where Vn: tumor volume on day n, and Vo: initial tumor volume.
Animal experiments were performed using Tumor Measuring & Tracking System (VISIONS Co. Ltd., Tokyo). […] Tumor samples were implanted subcutaneously into the back of mice (day 0). Tumor-implanted animals were randomized to groups based upon tumor volume and body weight when tumor volume reached approximately 100-200 mm^3. The control group was given vehicle (1% methylcellulose solution). The doses were calculated on the basis of up-to-date body weights of the mice (0.1 mL/10 g body weight). The mice were non-fasted during an entire course of the experiment.
The tumor sample implanted was a fragment of RERF-LC-AI carcinoma. Implanted animals were randomized at 10 days. Compound (1) was orally administered daily for 14 days.

[3] = tested on: RERF-LC-AI/TXL carcinoma; experiment: Antitumor efficacy against RERF-LC-AI/TXL human lung cancer fragment implanted subcutaneously in nude mice; details: for % inhibition: day 24
Method: (§6) Compound (1) was suspended in 1% methylcellulose solution (Wako, Osaka, 400 c.p., and distilled water) and was stored at 4° C. Paclitaxel (Sigma St. Louis, Mo.) was dissolved in dimethylsulfoxide (DMSO, Nakarai-Tesk, Tokyo) and stored at 4° C., and was prepared in a solution of 10% DMSO, 18% Cremophore RH-40 (Nikko Chemicals) and 72% distilled water before use.
as §2, §3, §4, §5
(§7) The tumor sample implanted was a fragment of RERF-LC-AI/TXL carcinoma. Implanted animals were randomized at 11 days. Compound (1) was orally administered daily for 14 days. Paclitaxel solution (DMSO/Cremophore/distilled water) was prepared as above. and administered intravenously 6 times (3 times per week×2, day 11, 13, 15, 18, 20 and 22).

[4] = tested on: Ma44 human lung squamous cell carcinoma; experiment: Antitumor efficacy against Ma44 human lung squamous cell carcinoma implanted subcutaneously in nude mice; details: for RV on day 27 (Mean +/- SD), relative tumor volume: nude mice; for % inhibition: day 27; for growth inhibition (% inhibition): p<0.01
Method: as §6, §2, §3, §4, §5
(§8) Ma44 human lung squamous cell carcinoma was maintained by in vitro passage with using Eagle's Minimum Essential Medium (Nissui Pharmaceutical Co., Tokyo) supplemented with 10% fetal calf serum (Life Technologies Inc, MD). Ma44 cells (5×10^5/0.1 mL) were implanted and the animals were randomized at 11 days. Compound (1) was orally administered daily for 14 days. Paclitaxel solution (DMSO/Cremophore/distilled water) was prepared as above and administered intravenously 6 times (3 times per week×2).

[5] = tested on: RERF-LC-AI/TXL carcinoma; details: in vivo
Method: as §6, §2, §3, §4, §5, §7

[6] = Body weight of treated mice (summary statement, Examples 1-4); type: in vivo
Method: as §4

[7] = tested on: Ma44 human lung squamous cell carcinoma; details: in vivo
Method: as §6, §2, §3, §4, §5, §8

[8] = 20 mg/kg x 6, intravenous, day 10, 12, 14, 17, 19 and 21
[9] = 20 mg/kg, maximum tolerated dose for nude mice in this schedule
[10] = 50 mg/kg x 14, oral daily, 5 surviving mice
[11] = 25 mg/kg x 14, oral daily, day 11-24

What does the source list for CC(=O)O[C@H]1C(=O)[C@@]2(C)[C@H]([C@H](OC(=O)c3ccccc3)[C@]3(O)C[C@H](OC(=O)[C@H](O)[C@@H](NC(=O)c4ccccc4)c4ccccc4)C(C)=C1C3(C)C)[C@]1(OC(C)=O)CO[C@@H]1C[C@@H]2O [Paclitaxel, reference compound]?
% inhibition ([1]; 20 mg/kg x 6, intravenous): 8.3%; RV (Mean +/- SD), relative tumor volume on day 34 ([1]; 20 mg/kg x 6, intravenous, day 20, 22, 24, 27, 29, 31, nude mice): 2.0 ± 0.7; MBWL, maximum body weight loss (% of initial) ([1]; 20 mg/kg x 6, intravenous, maximum on d27): 4.5% (d27); antitumor activity ([1]; 20 mg/kg, maximum tolerated dose for nude mice in this schedule, BG-1 cells): neither significant nor effective; MBWL, maximum body weight loss (% of initial) ([2]; 20 mg/kg x 6, intravenous): 7%; RV on day 26 (Mean +/- SD), relative tumor volume [2, 8]: 3.1 ± 0.8**^e); % inhibition ([2]; 20 mg/kg x 6, intravenous): 92.2%; MBWL, maximum body weight loss (% of initial) ([3]; 10 mg/kg x 6, intravenous): 0%; RV on day 24 (Mean +/- SD), relative tumor volume ([3]; 10 mg/kg x 6, intravenous, day 10, 12, 14, 17, 19 and 21): 31.23 ± 6.69; % inhibition ([3]; 10 mg/kg x 6, intravenous): 24.8%; MBWL, maximum body weight loss (% of initial) ([3]; 20 mg/kg x 6, intravenous): 0%; RV on day 24 (Mean +/- SD), relative tumor volume [3, 8]: 32.87 ± 10.03; % inhibition ([3]; 20 mg/kg x 6, intravenous): 20.9%; growth inhibition [3, 9]: 81.8%; MBWL, maximum body weight loss (% of initial) ([4]; 20 mg/kg x 6, intravenous): 3%; RV on day 27 (Mean +/- SD), relative tumor volume ([4]; 20 mg/kg x 6, intravenous, day 11, 13, 15, 18, 20 and 22): 2.8 ± 0.4^**e); % inhibition ([4]; 20 mg/kg x 6, intravenous): 81.8%; antitumor activity [4, 9]: neither significant nor effective

Which mice found dead [5] does the source give for Cc1cc(NC(=O)C(=O)c2cc(Cc3ccc(C#N)cc3)n3ccccc23)sn1 [Compound (1), 2-(3-(4-cyanobenzyl)indolizin-1-yl)-N-(3-methylisothiazol-5-yl)-2-oxoacetamide] here?
Its mice found dead is “All mice”.

What about the “change in body weight” value [6] of the same molecule?
Its value is “Minimal change in body weight”.

What about the “% inhibition” value ([1]; 12.5 mg/kg x 14, oral daily) of the same molecule?
Its value is 27.4%.

What about the “MBWL, maximum body weight loss (% of initial)” value ([1]; 12.5 mg/kg x 14, oral daily) of the same molecule?
The value was 0%.

And the “RV (Mean +/- SD), relative tumor volume on day 34” value ([1]; 12.5 mg/kg x 14, oral daily, from day 20 to 33)?
Its value is 1.6 ± 0.7.

And the body weight losses ([1]; 25 mg/kg and 50 mg/kg daily oral dosing groups)?
Its body weight losses is “mild”.

And the “% inhibition” value ([1]; 25 mg/kg x 14, oral daily)?
The value was 27.5%.

What about the “RV (Mean +/- SD), relative tumor volume on day 34” value ([1]; 25 mg/kg x 14, oral daily, from day 20 to 33) of the same molecule?
The value was 1.6 ± 0.5.

What about the “MBWL, maximum body weight loss (% of initial)” value ([1]; 25 mg/kg x 14, oral daily, maximum on d24) of the same molecule?
Its value is 1.9% (d24).

And the “RV (Mean +/- SD), relative tumor volume on day 34” value ([1]; 50 mg/kg x 14, oral daily, from day 20 to 33)?
The value was 0.9 ± 0.3.

And the “MBWL, maximum body weight loss (% of initial)” value ([1]; 50 mg/kg x 14, oral daily, maximum on d34)?
Its value is 8.7% (d34).

And the “percent inhibition of cancer cells” value ([1]; oral administration, BG1-TR1, summary)?
The value was “up to 61%”.

What about the “MBWL, maximum body weight loss (% of initial)” value ([2]; 25 mg/kg x 14, oral daily) of the same molecule?
The value was 4%.

What about the “RV on day 26 (Mean +/- SD), relative tumor volume” value ([2]; 25 mg/kg x 14, oral daily, day 10-23, nude mice) of the same molecule?
Its value is 14.1 ± 73.

And the “% inhibition” value ([2]; 25 mg/kg x 14, oral daily)?
Its value is 64.9%.

What about the Toxic death ([2]; 50 mg/kg x 14, oral daily, 1 of 6 mice, on day 21) of the same molecule?
The Toxic death was “one of six mice”.

And the “MBWL, maximum body weight loss (% of initial)” value [2, 10]?
Its value is 14%.

And the “RV on day 26 (Mean +/- SD), relative tumor volume” value [2, 10]?
The value was 8.2 ± 1.9.

What about the “% inhibition” value ([2]; 50 mg/kg x 14, oral daily) of the same molecule?
The value was 79.7%.

What about the Toxic death ([2]; 75 mg/kg x 14, oral daily, 6 mice, on day 17-20) of the same molecule?
The Toxic death was “All mice”.

What about the “percent inhibition of cancer cells” value ([2]; oral administration, RERF-LC-AI, summary) of the same molecule?
Its value is no more than 80%.

And the “MBWL, maximum body weight loss (% of initial)” value ([3]; 25 mg/kg x 14, oral daily)?
The value was 1%.

What about the “RV on day 24 (Mean +/- SD), relative tumor volume” value ([3]; 25 mg/kg x 14, oral daily, from day 10 to 23, nude mice) of the same molecule?
The value was 26.49 ± 13.41.

What about the “% inhibition” value ([3]; 25 mg/kg x 14, oral daily) of the same molecule?
The value was 36.2%.

And the “growth inhibition” value ([3]; 50 mg/kg daily oral dosing, evaluation day 27)?
The value was 68.8%.

What about the “MBWL, maximum body weight loss (% of initial)” value ([3]; 50 mg/kg x 14, oral daily) of the same molecule?
Its value is 3%.

And the Toxic death ([3]; 50 mg/kg x 14, oral daily, 1 mouse, on day 16)?
Its Toxic death is “Toxic”.

And the “RV on day 24 (Mean +/- SD), relative tumor volume” value ([3]; 50 mg/kg x 14, oral daily, 7 surviving mice)?
Its value is 15.01 ± 6.45.

And the “% inhibition” value ([3]; 50 mg/kg x 14, oral daily)?
The value was 63.9%.

And the “percent inhibition of cancer cells” value ([3]; oral administration, RERF/TXL, summary)?
Its value is no more than 67%.

And the “MBWL, maximum body weight loss (% of initial)” value ([4]; 25 mg/kg x 14, oral daily)?
The value was 3%.

And the “% inhibition” value [4, 11]?
Its value is 35.2%.

What about the “RV on day 27 (Mean +/- SD), relative tumor volume” value [4, 11] of the same molecule?
Its value is 10.0 ± 1.4.

What about the body weight losses ([4]; 50 mg/kg daily oral dosing) of the same molecule?
Its body weight losses is “mild”.

And the “growth inhibition (% inhibition)” value ([4]; 50 mg/kg daily oral dosing)?
Its value is 63.9%.

What about the “MBWL, maximum body weight loss (% of initial)” value ([4]; 50 mg/kg x 14, oral daily) of the same molecule?
Its value is 5%.

And the “% inhibition” value ([4]; 50 mg/kg x 14, oral daily)?
The value was 68.8%.

And the “RV on day 27 (Mean +/- SD), relative tumor volume” value ([4]; 50 mg/kg x 14, oral daily)?
The value was 4.8 ± 1.7.

And the “growth inhibition (% inhibition)” value ([4]; lower dose, daily oral)?
Its value is 36.2%.

What about the “percent inhibition of cancer cells” value ([4]; oral administration, Ma44, summary) of the same molecule?
The value was no more than 64%.

And the mice found dead [7]?
Its mice found dead is “one of eight mice”.
